From ChEMBL document CHEMBL1240489, “Discovery of N-{1-[3-(3-oxo-2,3-dihydrobenzo[1,4]oxazin-4-yl)propyl]piperidin-4-yl}-2-phenylacetamide (Lu AE51090): an allosteric muscarinic M1 receptor agonist with unprecedented selectivity and procognitive potential” (J Med Chem, 2010)

Key:
[1] = molecular target: Muscarinic acetylcholine receptor M3 (Homo sapiens, UniProt P20309); assay: Agonist activity at human muscarinic M3 receptor expressed in BHK-21 cells assessed as increase of acetylcholine-induced calcium flux at 10 uM by FLIPR assay relative to acetylcholine; type: functional, cell-based
Chain of Muscarinic acetylcholine receptor M3 (P20309 whole entry, looked up): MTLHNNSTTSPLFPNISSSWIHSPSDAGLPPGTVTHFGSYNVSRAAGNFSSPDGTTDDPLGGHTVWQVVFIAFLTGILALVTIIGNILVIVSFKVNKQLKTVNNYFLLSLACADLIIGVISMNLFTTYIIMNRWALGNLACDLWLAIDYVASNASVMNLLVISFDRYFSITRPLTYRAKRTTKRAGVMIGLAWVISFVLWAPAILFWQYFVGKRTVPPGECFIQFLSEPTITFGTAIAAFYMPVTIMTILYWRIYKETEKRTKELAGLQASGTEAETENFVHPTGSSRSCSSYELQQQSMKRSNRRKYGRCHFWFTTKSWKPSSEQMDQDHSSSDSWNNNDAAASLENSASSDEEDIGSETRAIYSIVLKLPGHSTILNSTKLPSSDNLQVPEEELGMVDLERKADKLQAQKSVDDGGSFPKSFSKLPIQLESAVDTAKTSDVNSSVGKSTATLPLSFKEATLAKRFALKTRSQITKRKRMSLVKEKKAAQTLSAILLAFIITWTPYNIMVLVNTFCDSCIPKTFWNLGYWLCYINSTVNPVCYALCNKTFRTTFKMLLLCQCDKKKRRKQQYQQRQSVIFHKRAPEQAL

[2] = molecular target: T1, Muscarinic acetylcholine receptor M4 (Homo sapiens) (UniProt P08173); assay: Agonist activity at human muscarinic M4 receptor expressed in BHK-21 cells coexpressing Galpha16 subunit assessed as increase of acetylcholine-induced calcium flux at 10 uM by FLIPR assay relative to acetylcholine; type: functional, cell-based
T1 sequence (whole entry): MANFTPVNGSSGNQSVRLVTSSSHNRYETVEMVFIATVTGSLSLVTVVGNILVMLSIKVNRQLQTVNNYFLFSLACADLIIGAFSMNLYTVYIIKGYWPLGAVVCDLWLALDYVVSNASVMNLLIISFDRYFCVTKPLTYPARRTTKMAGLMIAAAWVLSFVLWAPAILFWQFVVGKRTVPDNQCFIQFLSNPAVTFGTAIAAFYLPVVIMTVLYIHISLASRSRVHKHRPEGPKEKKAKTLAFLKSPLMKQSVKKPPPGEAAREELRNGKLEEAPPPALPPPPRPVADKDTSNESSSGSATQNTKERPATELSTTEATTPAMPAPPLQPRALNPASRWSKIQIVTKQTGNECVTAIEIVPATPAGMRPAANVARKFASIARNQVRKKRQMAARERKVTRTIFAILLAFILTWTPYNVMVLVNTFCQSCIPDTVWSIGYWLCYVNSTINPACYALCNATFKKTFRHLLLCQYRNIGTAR

[3] = molecular target: T2, Muscarinic acetylcholine receptor M5 (Homo sapiens) (UniProt P08912); assay: Agonist activity at human muscarinic M5 receptor expressed in BHK-21 cells assessed as increase of acetylcholine-induced calcium flux at 10 uM by FLIPR assay relative to acetylcholine; type: functional, cell-based
T2 sequence (whole entry): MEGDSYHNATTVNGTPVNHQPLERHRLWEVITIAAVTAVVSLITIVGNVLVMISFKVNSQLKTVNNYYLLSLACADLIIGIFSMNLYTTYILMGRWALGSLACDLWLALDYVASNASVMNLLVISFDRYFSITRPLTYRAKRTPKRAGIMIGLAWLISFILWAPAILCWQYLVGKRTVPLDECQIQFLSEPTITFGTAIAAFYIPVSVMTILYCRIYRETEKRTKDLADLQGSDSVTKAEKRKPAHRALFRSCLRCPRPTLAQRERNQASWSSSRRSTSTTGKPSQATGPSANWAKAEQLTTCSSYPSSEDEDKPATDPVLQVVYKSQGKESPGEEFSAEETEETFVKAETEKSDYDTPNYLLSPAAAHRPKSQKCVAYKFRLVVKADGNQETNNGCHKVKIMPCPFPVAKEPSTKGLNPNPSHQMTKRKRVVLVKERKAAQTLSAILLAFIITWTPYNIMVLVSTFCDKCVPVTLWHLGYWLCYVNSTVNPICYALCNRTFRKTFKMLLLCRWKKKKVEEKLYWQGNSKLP

[4] = molecular target: T3, Muscarinic acetylcholine receptor M4 (Homo sapiens, UniProt P08173); assay: Displacement of [3H]-4-DAMP from human muscarinic M4 receptor expressed in BHK-21 cells; type: cell-based
T3 sequence (P08173 whole entry): T1 sequence (whole entry)

[5] = Protein binding in rat plasma at 0.1 uM after 60 mins by LC/MS-MS analysis; type: ADME, cell-free; conditions: read-out: PPB (converted)
[6] = organism: Rattus norvegicus; assay: Hepatic blood flow in rat; type: ADME, organism-based, Liver
[7] = Terminal half life in rat plasma at 1 mg/kg, iv and 2 mg/kg, po; type: ADME, organism-based
[8] = system: Mus musculus; assay: Reversal of 0 seconds delay-induced memory decay in C57Bl/6J mouse assessed as positive alteration at 0.31 to 20 mg/kg, sc for 1 week by Y-maze test; type: functional; conditions: dose mg/kg 0.31-20; route subcutaneous
[9] = Drug level in C57/6J mouse brain at 20 mg/kg, sc after 30 mins; type: ADME, organism-based; parameters: dose 20 mg/kg, route subcutaneous; conditions: read-out: Drug uptake
[10] = molecular target: Histamine H3 receptor (Homo sapiens, UniProt Q9Y5N1); assay: Binding affinity to human histamine H3 receptor by radioligand displacement assay
[11] = molecular target: 5-hydroxytryptamine receptor 2B (Homo sapiens, UniProt P41595); assay: Binding affinity to human 5-HT2B agonist site receptor by radioligand displacement assay
Chain of 5-hydroxytryptamine receptor 2B (P41595 whole entry): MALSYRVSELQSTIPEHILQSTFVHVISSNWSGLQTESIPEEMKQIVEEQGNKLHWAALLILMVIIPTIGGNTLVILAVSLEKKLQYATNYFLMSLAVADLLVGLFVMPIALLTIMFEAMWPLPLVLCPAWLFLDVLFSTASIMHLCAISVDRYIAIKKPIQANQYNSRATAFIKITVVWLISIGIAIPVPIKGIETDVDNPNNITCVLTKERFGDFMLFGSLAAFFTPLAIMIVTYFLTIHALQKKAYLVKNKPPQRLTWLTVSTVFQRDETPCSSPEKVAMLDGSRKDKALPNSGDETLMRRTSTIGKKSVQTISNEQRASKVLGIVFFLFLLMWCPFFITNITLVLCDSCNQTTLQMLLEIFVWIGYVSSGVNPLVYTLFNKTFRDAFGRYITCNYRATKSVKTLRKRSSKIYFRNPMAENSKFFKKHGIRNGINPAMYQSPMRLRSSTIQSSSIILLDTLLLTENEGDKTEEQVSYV

[12] = molecular target: 5-hydroxytryptamine receptor 2A (Homo sapiens, UniProt P28223); assay: Binding affinity to human 5-HT2A agonist site receptor by radioligand displacement assay
[13] = Binding affinity to voltage gated Na channel site 2 by radioligand displacement assay
[14] = Binding affinity to NMDA receptor PCP binding site by radioligand displacement assay
[15] = Binding affinity to sigma receptor by radioligand displacement assay
[16] = molecular target: Sodium-dependent dopamine transporter (Homo sapiens, UniProt Q01959); assay: Binding affinity to human dopamine transporter by radioligand displacement assay
Chain of Sodium-dependent dopamine transporter (Q01959 whole entry): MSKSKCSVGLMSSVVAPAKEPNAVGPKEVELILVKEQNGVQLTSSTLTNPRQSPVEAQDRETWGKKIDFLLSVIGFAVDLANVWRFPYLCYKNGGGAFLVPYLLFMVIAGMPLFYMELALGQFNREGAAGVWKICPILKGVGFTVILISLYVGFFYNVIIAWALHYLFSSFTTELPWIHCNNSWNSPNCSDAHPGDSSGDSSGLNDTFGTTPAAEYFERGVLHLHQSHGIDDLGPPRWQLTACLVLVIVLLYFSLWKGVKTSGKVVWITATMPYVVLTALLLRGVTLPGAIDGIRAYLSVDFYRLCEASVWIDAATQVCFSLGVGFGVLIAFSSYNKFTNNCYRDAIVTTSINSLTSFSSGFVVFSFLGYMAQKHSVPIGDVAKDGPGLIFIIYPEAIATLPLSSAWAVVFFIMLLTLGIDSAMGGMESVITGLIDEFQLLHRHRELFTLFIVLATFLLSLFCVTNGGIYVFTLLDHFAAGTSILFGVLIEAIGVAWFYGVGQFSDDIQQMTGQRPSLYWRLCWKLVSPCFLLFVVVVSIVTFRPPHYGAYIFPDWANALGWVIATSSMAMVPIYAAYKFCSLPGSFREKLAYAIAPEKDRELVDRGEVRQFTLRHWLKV

[17] = molecular target: D(4) dopamine receptor (Homo sapiens, UniProt P21917); assay: Binding affinity to human D4.4 receptor by radioligand displacement assay
Chain of D(4) dopamine receptor (P21917 whole entry): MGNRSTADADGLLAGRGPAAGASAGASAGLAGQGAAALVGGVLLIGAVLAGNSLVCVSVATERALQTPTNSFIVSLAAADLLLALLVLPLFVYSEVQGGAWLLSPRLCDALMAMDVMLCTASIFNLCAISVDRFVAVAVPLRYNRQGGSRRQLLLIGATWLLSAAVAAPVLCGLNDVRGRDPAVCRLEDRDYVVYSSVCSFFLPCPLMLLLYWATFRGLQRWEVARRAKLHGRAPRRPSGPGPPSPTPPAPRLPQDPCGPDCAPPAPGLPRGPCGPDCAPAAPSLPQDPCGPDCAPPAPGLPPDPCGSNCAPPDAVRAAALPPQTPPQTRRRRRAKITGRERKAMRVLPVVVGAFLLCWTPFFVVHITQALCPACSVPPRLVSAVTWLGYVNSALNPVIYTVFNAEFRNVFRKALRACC

[18] = Binding affinity to adrenergic alpha1 receptor by radioligand displacement assay
[19] = molecular target: Gastrin/cholecystokinin type B receptor (Homo sapiens, UniProt P32239); assay: Binding affinity to human CCK2 receptor by radioligand displacement assay
Chain of Gastrin/cholecystokinin type B receptor (P32239 whole entry): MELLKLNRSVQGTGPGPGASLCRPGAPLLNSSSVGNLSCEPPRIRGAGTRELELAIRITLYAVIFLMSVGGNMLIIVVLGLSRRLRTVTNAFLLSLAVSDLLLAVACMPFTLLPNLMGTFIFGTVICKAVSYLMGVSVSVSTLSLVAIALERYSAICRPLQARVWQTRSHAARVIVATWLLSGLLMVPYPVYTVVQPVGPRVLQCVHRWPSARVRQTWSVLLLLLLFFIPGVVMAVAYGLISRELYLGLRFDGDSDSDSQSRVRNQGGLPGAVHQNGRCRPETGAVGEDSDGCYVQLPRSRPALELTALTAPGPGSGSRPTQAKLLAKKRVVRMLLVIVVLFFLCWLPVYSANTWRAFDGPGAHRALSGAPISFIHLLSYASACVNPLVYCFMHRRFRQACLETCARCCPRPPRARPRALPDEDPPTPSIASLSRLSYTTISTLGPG

[20] = molecular target: Beta-2 adrenergic receptor (Homo sapiens, UniProt P07550); assay: Binding affinity to adrenergic beta2 receptor by radioligand displacement assay
[21] = molecular target: Ribosyldihydronicotinamide dehydrogenase [quinone] (Homo sapiens, UniProt P16083); assay: Binding affinity to ML2 (MT3) receptor by radioligand displacement assay
Chain of Ribosyldihydronicotinamide dehydrogenase [quinone] (P16083 whole entry): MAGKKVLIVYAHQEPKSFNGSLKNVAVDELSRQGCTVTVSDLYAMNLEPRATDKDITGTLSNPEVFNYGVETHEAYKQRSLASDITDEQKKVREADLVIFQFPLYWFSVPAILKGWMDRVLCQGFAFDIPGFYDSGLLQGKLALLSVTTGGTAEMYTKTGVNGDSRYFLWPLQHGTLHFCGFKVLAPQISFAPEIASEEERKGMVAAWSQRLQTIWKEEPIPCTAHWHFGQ

[22] = molecular target: Sodium-dependent noradrenaline transporter (Homo sapiens, UniProt P23975); assay: Binding affinity to human NE transporter by radioligand displacement assay
Chain of Sodium-dependent noradrenaline transporter (P23975 whole entry): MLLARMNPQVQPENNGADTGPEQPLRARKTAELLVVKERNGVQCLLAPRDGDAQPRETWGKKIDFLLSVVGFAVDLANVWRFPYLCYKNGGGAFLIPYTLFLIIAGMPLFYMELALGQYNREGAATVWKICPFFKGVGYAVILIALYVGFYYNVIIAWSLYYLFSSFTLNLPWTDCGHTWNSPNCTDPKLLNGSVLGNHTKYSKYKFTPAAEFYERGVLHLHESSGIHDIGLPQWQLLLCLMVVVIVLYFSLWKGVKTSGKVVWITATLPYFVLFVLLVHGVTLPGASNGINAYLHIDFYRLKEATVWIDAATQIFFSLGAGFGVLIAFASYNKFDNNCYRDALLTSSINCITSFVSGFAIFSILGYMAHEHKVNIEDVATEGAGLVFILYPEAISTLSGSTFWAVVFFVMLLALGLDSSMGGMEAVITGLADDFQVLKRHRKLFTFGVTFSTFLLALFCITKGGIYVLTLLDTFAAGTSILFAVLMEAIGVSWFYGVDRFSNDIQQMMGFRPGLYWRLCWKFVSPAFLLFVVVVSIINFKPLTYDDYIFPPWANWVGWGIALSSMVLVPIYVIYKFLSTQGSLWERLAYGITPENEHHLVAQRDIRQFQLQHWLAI

[23] = molecular target: Adenosine receptor A3 (Homo sapiens, UniProt P0DMS8); assay: Binding affinity to human adenosine A3 receptor by radioligand displacement assay
Chain of Adenosine receptor A3 (P0DMS8 whole entry): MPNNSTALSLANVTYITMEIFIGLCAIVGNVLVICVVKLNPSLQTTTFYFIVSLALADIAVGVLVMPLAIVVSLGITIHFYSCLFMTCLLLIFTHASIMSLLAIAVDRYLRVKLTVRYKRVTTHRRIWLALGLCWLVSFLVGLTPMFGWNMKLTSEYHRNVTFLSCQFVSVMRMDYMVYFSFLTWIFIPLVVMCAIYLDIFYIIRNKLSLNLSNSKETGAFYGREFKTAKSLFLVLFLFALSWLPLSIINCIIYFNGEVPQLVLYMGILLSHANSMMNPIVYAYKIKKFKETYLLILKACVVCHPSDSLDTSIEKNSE

[24] = molecular target: Substance-K receptor (Homo sapiens, UniProt P21452); assay: Binding affinity to human NK2 receptor by radioligand displacement assay
Chain of Substance-K receptor (P21452 whole entry): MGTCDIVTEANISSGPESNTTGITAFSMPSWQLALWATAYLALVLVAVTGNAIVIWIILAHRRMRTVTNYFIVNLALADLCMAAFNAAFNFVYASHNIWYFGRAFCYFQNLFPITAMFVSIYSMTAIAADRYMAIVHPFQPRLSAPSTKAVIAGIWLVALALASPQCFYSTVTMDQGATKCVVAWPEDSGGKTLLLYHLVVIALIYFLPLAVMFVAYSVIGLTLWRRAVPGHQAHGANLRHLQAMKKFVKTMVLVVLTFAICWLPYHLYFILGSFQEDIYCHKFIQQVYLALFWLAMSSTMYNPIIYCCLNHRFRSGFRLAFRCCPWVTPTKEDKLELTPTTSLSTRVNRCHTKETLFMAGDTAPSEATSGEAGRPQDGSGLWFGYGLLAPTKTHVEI

[25] = molecular target: Alpha-1A adrenergic receptor (Homo sapiens, UniProt P35348); assay: Binding affinity to human adrenergic alpha1A receptor by radioligand displacement assay
Chain of Alpha-1A adrenergic receptor (P35348 whole entry): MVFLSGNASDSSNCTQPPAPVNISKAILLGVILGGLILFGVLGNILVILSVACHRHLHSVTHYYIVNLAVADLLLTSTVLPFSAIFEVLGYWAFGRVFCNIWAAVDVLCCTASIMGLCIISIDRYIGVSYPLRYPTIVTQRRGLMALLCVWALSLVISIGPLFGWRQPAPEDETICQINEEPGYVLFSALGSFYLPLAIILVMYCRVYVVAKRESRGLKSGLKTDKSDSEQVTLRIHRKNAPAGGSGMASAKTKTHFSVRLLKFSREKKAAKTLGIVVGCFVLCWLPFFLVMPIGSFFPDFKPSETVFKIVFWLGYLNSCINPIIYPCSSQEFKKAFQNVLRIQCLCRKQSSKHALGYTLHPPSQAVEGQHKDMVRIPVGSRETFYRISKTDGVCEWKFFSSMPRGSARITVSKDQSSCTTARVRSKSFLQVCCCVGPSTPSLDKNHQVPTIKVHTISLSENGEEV

O=C(Cc1ccccc1)NC1CCN(CCCN2C(=O)COc3ccccc32)CC1
Emax [1]: 1%
Emax [2]: 6%
Emax [3]: 1%
Ki [4]: 6900 nM
fraction unbound at 1 h, 0.1 µM [5]: 0.48
QH [6]: 20 mL/min
half-life [7]: 48 min
Activity [8]: 80%
concentration at 0.5 h [9]: 440 ng/g
Ki [10]: ≥ 1000 nM
Ki [11]: ≥ 1000 nM
Ki [12]: ≥ 1000 nM
Ki [13]: ≥ 1000 nM
Ki [14]: ≥ 1000 nM
Ki [15]: ≥ 1000 nM
Ki [16]: ≥ 1000 nM
Ki [17]: ≥ 1000 nM
Ki [18]: ≥ 1000 nM
Ki [19]: ≥ 1000 nM
Ki [20]: ≥ 1000 nM
Ki [21]: ≥ 1000 nM
Ki [22]: ≥ 1000 nM
Ki [23]: ≥ 1000 nM
Ki [24]: ≥ 1000 nM
Ki [25]: 260 nM
